Measured values as given in patent publication US8975232B2, “Macrocyclic kinase inhibitors and uses thereof” (President and Fellows of Harvard College, priority 2010, dated 2015).

Tests used:
Assay type in all cases: biochemical
[1] = target: VEGFR2 (KDR) (Homo sapiens, UniProt P35968); assay: Z'-LYTE kinase assay (Invitrogen SelectScreen); conditions: KDR (VEGFR2); 5 μM
Description: (§1) Macrocycles A10-B1-C11-D5 and A10-B8-C11-D5 were enriched 2- to 6-fold upon selection for binding Akt3, MAPKAPK2, Pim1, and VEGFR2 (FIG. 6). These two macrocycles are structurally similar, sharing nitrophenylalanine (A10) and cyclohexylstatine (C11) building blocks as well as the same lysine scaffold (D5), and differ only at the B building block with either furylalanine (B1) or cyclohexylalanine (B8) (FIG. 6). For assay purposes, the macrocycles were synthesized with C-terminal PEG-diamine linkers to aid solubility, and then tested for the ability to inhibit Akt3, MAPKAPK2, Pim1 and VEGFR2.
(§2) Src IC50 determinations and single-point inhibition measurements were performed using Invitrogen's Z′-LYTE Tyr 02 assay kit according to the manufacturer's protocols. All kinase assays were performed at ATP concentrations near KM,ATP values, except where noted otherwise. Active human Src kinase was obtained from Millipore. For kinome profiling and IC50 determinations against non-Src kinases, compounds were submitted to Invitrogen's SelectScreen Kinase Profiling Service.

[2] = target: MAPKAPK2 (MK2) (Homo sapiens, UniProt P49137); assay: Z'-LYTE kinase assay (Invitrogen SelectScreen); conditions: MAPKAPK2; 5 μM
MAPKAPK2 (MK2), sequence (P49137 whole entry): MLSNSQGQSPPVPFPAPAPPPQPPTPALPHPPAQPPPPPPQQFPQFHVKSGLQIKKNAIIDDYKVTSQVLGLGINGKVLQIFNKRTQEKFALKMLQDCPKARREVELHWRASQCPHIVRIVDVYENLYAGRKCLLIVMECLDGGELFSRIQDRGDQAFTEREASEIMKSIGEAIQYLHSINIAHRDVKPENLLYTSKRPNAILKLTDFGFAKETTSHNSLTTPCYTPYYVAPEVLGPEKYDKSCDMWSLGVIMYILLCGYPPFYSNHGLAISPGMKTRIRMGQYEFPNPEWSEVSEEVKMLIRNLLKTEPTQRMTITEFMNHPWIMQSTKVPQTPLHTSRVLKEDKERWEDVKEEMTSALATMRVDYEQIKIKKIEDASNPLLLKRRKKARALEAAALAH
Description: as §1, §2

[3] = target: Akt3 (Homo sapiens, UniProt Q9Y243); assay: Z'-LYTE kinase assay (Invitrogen SelectScreen); conditions: AKT3 (PKB gamma); 5 μM
Akt3, sequence (Q9Y243 whole entry): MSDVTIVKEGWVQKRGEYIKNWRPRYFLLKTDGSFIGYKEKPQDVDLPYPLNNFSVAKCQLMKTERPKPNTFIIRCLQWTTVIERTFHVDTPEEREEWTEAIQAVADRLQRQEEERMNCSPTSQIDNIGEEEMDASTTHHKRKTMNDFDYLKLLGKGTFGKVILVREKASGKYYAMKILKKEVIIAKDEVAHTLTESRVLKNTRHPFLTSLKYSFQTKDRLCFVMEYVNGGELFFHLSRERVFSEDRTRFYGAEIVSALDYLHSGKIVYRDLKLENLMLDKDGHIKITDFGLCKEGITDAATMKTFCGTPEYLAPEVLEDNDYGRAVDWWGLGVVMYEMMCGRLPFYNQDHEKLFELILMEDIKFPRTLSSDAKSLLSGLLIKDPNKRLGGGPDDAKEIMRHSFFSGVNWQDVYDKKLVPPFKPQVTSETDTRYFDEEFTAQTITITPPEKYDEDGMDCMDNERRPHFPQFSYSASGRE
Description: as §1, §2

[4] = target: Pim1 (Homo sapiens, UniProt P11309); assay: Z'-LYTE kinase assay (Invitrogen SelectScreen); conditions: PIM1; 5 μM
Pim1, sequence (P11309 whole entry): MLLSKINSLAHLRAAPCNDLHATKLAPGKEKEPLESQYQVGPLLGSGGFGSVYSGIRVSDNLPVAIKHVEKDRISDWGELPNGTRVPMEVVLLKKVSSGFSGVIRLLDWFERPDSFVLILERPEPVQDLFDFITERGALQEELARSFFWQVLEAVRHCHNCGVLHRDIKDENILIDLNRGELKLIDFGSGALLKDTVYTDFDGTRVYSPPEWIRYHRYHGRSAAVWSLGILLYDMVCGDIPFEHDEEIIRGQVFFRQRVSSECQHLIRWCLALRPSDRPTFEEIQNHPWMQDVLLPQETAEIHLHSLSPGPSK
Description: as §1, §2

[5] = target: HCK (Homo sapiens, UniProt P08631); assay: Continuous spectrophotometric kinase activity assay; parameters: Kinase domain constructs of human c-Abl (residues 229-512), chicken c-Src (residues 251-533 and residues 83-533), murine Lck (residues 227-509), and human Hck (residues 166-445); made in house
HCK, sequence (P08631 262-515 limits assumed): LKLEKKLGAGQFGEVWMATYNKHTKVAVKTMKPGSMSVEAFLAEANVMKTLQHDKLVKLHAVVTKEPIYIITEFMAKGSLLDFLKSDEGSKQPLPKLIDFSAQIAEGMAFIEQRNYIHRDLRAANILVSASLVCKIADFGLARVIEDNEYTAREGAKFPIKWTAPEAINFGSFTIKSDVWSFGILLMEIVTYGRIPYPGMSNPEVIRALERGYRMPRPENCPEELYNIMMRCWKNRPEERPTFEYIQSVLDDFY
Description: Kinase domain constructs of human c-Abl (residues 229-512), chicken c-Src (residues 251-533 and residues 83-533), murine Lck (residues 227-509), and human Hck (residues 166-445) were expressed as previously described (Seeliger, Young et al. 2005; Seeliger, Nagar et al. 2007; the entire contents of each of which are incorporated by reference herein). Mutations were introduced into chicken c-Src (residues 251-533) (T338I, C277Q, L297M) by site-directed mutagenesis and verified by DNA sequencing.
In vitro kinase inhibition assays were performed using either a continuous spectrophotometric assay or a FRET-based endpoint assay.
The original characterization of kinase inhibition was performed with a commercial kinase assay that relies on a fluorescently labeled peptide kinase substrate (Z-LYTE, Invitrogen). For further characterization, a continuous spectrophotometric kinase activity assay was employed that is easily adapted to different substrate peptides as well as a wider range of peptide and ATP concentrations.

VEGFR2 (KDR), sequence (P35968 20-1356): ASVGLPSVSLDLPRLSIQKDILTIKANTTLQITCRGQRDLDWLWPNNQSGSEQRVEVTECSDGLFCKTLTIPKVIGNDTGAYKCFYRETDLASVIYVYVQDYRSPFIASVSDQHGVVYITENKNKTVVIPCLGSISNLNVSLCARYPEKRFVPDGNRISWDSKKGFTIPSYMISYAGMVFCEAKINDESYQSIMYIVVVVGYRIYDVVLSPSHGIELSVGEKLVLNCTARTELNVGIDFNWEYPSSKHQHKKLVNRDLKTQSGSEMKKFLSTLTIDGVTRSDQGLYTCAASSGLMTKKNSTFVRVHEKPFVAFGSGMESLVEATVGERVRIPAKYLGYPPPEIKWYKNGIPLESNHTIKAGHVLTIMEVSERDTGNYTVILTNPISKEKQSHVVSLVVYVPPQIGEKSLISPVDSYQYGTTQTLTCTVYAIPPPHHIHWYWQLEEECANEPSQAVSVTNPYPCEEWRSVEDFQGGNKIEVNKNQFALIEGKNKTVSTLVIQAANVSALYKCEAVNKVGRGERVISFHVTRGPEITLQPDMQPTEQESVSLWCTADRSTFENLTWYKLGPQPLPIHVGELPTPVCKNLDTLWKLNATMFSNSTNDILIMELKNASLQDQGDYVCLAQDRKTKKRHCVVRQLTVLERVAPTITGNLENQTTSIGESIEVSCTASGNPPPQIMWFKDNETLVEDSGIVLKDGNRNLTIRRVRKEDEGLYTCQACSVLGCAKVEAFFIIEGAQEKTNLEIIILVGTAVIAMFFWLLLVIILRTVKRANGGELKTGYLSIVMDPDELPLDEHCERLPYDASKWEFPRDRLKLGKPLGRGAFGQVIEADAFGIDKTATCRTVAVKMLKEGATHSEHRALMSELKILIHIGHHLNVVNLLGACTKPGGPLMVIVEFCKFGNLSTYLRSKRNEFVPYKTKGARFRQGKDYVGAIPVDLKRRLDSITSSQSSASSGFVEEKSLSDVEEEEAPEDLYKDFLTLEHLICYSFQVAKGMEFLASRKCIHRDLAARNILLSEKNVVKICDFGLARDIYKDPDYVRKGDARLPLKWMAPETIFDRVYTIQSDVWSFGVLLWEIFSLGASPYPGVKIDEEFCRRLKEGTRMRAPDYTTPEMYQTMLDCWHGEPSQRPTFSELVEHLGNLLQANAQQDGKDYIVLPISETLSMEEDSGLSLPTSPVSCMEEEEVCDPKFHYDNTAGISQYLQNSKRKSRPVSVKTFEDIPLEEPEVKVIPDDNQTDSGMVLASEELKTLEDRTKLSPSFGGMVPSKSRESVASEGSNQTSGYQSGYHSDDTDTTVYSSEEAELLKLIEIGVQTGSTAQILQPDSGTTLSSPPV

Which “% inhibition” value [1] does the source give for `NC(=O)[C@@H]1CCCNC(=O)[C@H](Cc2ccc([N+](=O)[O-])cc2)NC(=O)[C@H](Cc2ccco2)NC(=O)[C@H](CC2CC2)NC(=O)/C=C/C(=O)N1` [trans-A10-B1-C5-D6] here?
Its value is 7%.

What about the “% inhibition” value [2] of the same compound?
Its value is −3%.

And the “% inhibition” value [3]?
Its value is 11%.

And the “% inhibition” value [4]?
The value was −3%.

What about the IC50 ([5]; 5 μM ATP, 100 μM Src optimal peptide) of the same compound?
Its IC50 is > 100 µM.

And the IC50 ([5]; 5 μM ATP, 300 μM Src optimal peptide)?
The IC50 was > 100 µM.

What about the IC50 ([5]; 250 μM ATP, 300 μM Src optimal peptide) of the same compound?
Its IC50 is > 100 µM.
